This experiment concerns L1210 leukemia ip in BDF1 mice, survival T/C. The experiment in a line: NCI In Vivo Anticancer Drug Screen. Data for tumor model L1210 Leukemia (intraperitoneal) in B6D2F1 (BDF1) mice. Particulars: endpoint: mean survival time, higher = longer survival. The gist of the method: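 Tumor was transplanted into mice, which were then dosed with test compound or vehicle alone. Survival was recorded for each group, and the treated figure was expressed relative to the control figure.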

Setting [1] is: dose: 5.0 mg/kg/injection, schedule: Q01DX001 (ip), vehicle: other.
[2] abbreviates: dose: 10.0 mg/kg/injection, schedule: Q01DX001 (ip), vehicle: other.
The mark [3] stands for this setting: dose: 100.0 mg/kg/injection, schedule: Q01DX001 (ip), vehicle: saline.
Setting [4] is: dose: 10.0 mg/kg/injection, schedule: Q01DX001 (ip), vehicle: saline.
[5] abbreviates: dose: 20.0 mg/kg/injection, schedule: Q01DX001 (ip), vehicle: saline.
Setting [6] is: dose: 40.0 mg/kg/injection, schedule: Q01DX001 (ip), vehicle: saline.
Where [7] appears, read: dose: 100.0 mg/kg/injection, schedule: Q01DX001 (ip), vehicle: carboxymethylcellulose (CMC).
[8] abbreviates: dose: 100.0 mg/kg/injection, schedule: Q04DX002 (ip), vehicle: saline with Tween-80.
[9] abbreviates: dose: 200.0 mg/kg/injection, schedule: Q04DX002 (ip), vehicle: saline with Tween-80.
Where [10] appears, read: dose: 100.0 mg/kg/injection, schedule: Q01DX009 (ip), vehicle: other.
Setting [11] is: dose: 100.0 mg/kg/injection, schedule: Q04DX003 (ip), vehicle: other.
Where [12] appears, read: dose: 200.0 mg/kg/injection, schedule: Q01DX009 (ip), vehicle: other.
Where [13] appears, read: dose: 200.0 mg/kg/injection, schedule: Q04DX003 (ip), vehicle: other.
Setting [14] is: dose: 400.0 mg/kg/injection, schedule: Q01DX009 (ip), vehicle: other.
Where [15] appears, read: dose: 400.0 mg/kg/injection, schedule: Q04DX003 (ip), vehicle: other.
The mark [16] stands for this setting: dose: 100.0 mg/kg/injection, schedule: Q01DX009 (ip), vehicle: saline with Tween-80.
Setting [17] is: dose: 200.0 mg/kg/injection, schedule: Q01DX009 (ip), vehicle: saline with Tween-80.
The mark [18] stands for this setting: dose: 400.0 mg/kg/injection, schedule: Q01DX009 (ip), vehicle: saline with Tween-80.

“And” between values parts separate entries of the source, which are not always exact repeats. Equal values may be shown once. Inconclusive results and toxic doses are left out.

As for `CN(Cc1ccc2nc(N)nc(N)c2c1)c1ccc(C(=O)NC(CCC(=O)O)C(=O)O)cc1` (stereo unspecified), the T/C reads like this: (dose: 0.12 mg/kg/injection, schedule: Q01DX009 (ip), vehicle: other) 123 % of control; (dose: 0.5 mg/kg/injection, schedule: Q01DX009 (ip), vehicle: other) 192 % of control; (dose: 1.0 mg/kg/injection, schedule: Q01DX009 (ip), vehicle: other) 190 % of control; (dose: 1.25 mg/kg/injection, schedule: Q01DX009 (ip), vehicle: saline) 154 % of control; (dose: 2.1 mg/kg/injection, schedule: Q01DX009 (ip), vehicle: other) 101 % of control; (dose: 2.5 mg/kg/injection, schedule: Q01DX009 (ip), vehicle: saline) 113 % of control. The T/C is, setting by setting: under setting [1], 151 % of control; (dose: 5.0 mg/kg/injection, schedule: Q01DX009 (ip), vehicle: saline) 97 % of control; (dose: 6.6 mg/kg/injection, schedule: Q01DX001 (ip), vehicle: other) 119 % of control; (dose: 6.6 mg/kg/injection, schedule: Q01DX001 (ip), vehicle: saline) 119 % of control; under setting [2], 159 % of control; (dose: 15.0 mg/kg/injection, schedule: Q01DX001 (ip), vehicle: other) 154 % of control.

Regarding `CC(=O)CC(=O)Nc1ccc(NC(C)=O)cc1`, the T/C was 96 % of control under setting [3]; 100 % of control (dose: 200.0 mg/kg/injection, schedule: Q01DX001 (ip), vehicle: saline); 105 % of control (dose: 400.0 mg/kg/injection, schedule: Q01DX001 (ip), vehicle: saline).

As for `CCOC(=O)c1ccc(Nc2nnc(-c3ccccc3Cl)s2)cc1`, the T/C is, setting by setting: (dose: 25.0 mg/kg/injection, schedule: Q04DX002 (ip), vehicle: gum acacia) 98 % of control; (dose: 100.0 mg/kg/injection, schedule: Q04DX002 (ip), vehicle: gum acacia) 88 % of control; (dose: 200.0 mg/kg/injection, schedule: Q04DX002 (ip), vehicle: gum acacia) 102 % of control; (dose: 400.0 mg/kg/injection, schedule: Q04DX002 (ip), vehicle: gum acacia) 94 % of control.

On to `Cc1ccc2c(ccc3c[n+]4c5ccccc5ccc4n32)c1`, for which the T/C is 97 % of control (dose: 5.0 mg/kg/injection, schedule: Q01DX001 (ip), vehicle: saline); 100 % of control under setting [4]; 101 % of control under setting [5]; 117 % of control under setting [6].

For the molecule `O=C1OC2CC3CC1C2C3` (stereo unspecified), the T/C reads like this: under setting [1], 91 % of control; under setting [2], 91 % of control; under setting [4], 101 % of control; (dose: 12.5 mg/kg/injection, schedule: Q01DX009 (ip), vehicle: Klucel (hydroxypropylcellulose) (HPC)) 98 % of control; (dose: 20.0 mg/kg/injection, schedule: Q01DX001 (ip), vehicle: other) 95 % of control; under setting [5], 105 % of control. The T/C by setting is: (dose: 25.0 mg/kg/injection, schedule: Q01DX009 (ip), vehicle: Klucel (hydroxypropylcellulose) (HPC)) 96 % of control; (dose: 25.0 mg/kg/injection, schedule: Q04DX003 (ip), vehicle: Klucel (hydroxypropylcellulose) (HPC)) 95 % of control; (dose: 40.0 mg/kg/injection, schedule: Q01DX001 (ip), vehicle: other) 94 % of control; under setting [6], 99 % of control; (dose: 50.0 mg/kg/injection, schedule: Q01DX001 (ip), vehicle: carboxymethylcellulose (CMC)) 108 % of control; (dose: 50.0 mg/kg/injection, schedule: Q01DX009 (ip), vehicle: Klucel (hydroxypropylcellulose) (HPC)) 88 % of control. In addition, the T/C is 88 % of control (dose: 50.0 mg/kg/injection, schedule: Q04DX003 (ip), vehicle: Klucel (hydroxypropylcellulose) (HPC)); 97 % of control (dose: 75.0 mg/kg/injection, schedule: Q01DX001 (ip), vehicle: acetone); 108 % of control under setting [7].

For the molecule `Cn1c2ccccc2c2nn3cnnc3nc21`, the T/C is 108 % of control under setting [8] and 120 % of control under setting [9].

On to `COc1cccc(/C=N\NC(=O)C(C)SC(C)C(=O)N/N=C/c2cccc(OC)c2)c1` (stereo unspecified), for which the T/C runs as follows: under setting [10], 91 % of control; under setting [11], 89 % of control; under setting [12], 94 % of control; under setting [13], 89 % of control; under setting [14], 94 % of control; under setting [15], 96 % of control.

As for `CS(=O)(=O)N(CC(=O)O)Cc1ccc(Cl)c(Cl)c1`, the T/C runs as follows: under setting [10], 100 % of control; under setting [11], 97 % of control; under setting [12], 104 % of control; under setting [13], 97 % of control; under setting [14], 96 % of control; under setting [15], 95 % of control.

As to `c1ccc2sccc2c1`, the T/C is, setting by setting: under setting [16], 110 % of control; under setting [17], 111 % of control; under setting [18], 116 % of control.

As for `CCCNc1ccc(C2=NCCCN2)cc1`, the T/C under setting [3] is 102 % of control.

Regarding `O=C(O)c1ccc(N=Cc2cccc([N+](=O)[O-])c2)cc1`, the T/C by setting is: (dose: 100.0 mg/kg/injection, schedule: Q01DX001 (ip), vehicle: saline with Tween-80) 106 % of control; under setting [16], 100 % of control and 91 % of control; under setting [8], 97 % of control and 91 % of control; (dose: 200.0 mg/kg/injection, schedule: Q01DX001 (ip), vehicle: saline with Tween-80) 92 % of control; under setting [17], 98 % of control and 122 % of control; under setting [9], 93 % of control and 91 % of control. Further, the T/C by setting is: (dose: 400.0 mg/kg/injection, schedule: Q01DX001 (ip), vehicle: saline with Tween-80) 95 % of control; under setting [18], 102 % of control and 88 % of control; (dose: 400.0 mg/kg/injection, schedule: Q04DX002 (ip), vehicle: saline with Tween-80) 93 % of control and 88 % of control.

Take `Cc1ccc(N=Nc2ccc([N+](=O)[O-])cc2)c([N+](=O)[O-])c1`: the T/C runs as follows: under setting [7], 96 % of control; (dose: 200.0 mg/kg/injection, schedule: Q01DX001 (ip), vehicle: carboxymethylcellulose (CMC)) 93 % of control; (dose: 400.0 mg/kg/injection, schedule: Q01DX001 (ip), vehicle: carboxymethylcellulose (CMC)) 96 % of control.

Turning to `C(/C=C/C=C/N1CCCCC1)=[N+]1CCCCC1`, the T/C is, setting by setting: (dose: 0.39 mg/kg/injection, schedule: Q04DX003 (ip), vehicle: saline) 112 % of control; (dose: 0.78 mg/kg/injection, schedule: Q04DX003 (ip), vehicle: saline) 93 % of control; (dose: 1.56 mg/kg/injection, schedule: Q04DX003 (ip), vehicle: saline) 105 % of control.

As to `Nc1ccc(C(F)(F)F)cc1[N+](=O)[O-]`, the T/C was 118 % of control (dose: 100.0 mg/kg/injection, schedule: Q04DX002 (ip), vehicle: saline); 103 % of control (dose: 200.0 mg/kg/injection, schedule: Q04DX002 (ip), vehicle: saline); 107 % of control (dose: 400.0 mg/kg/injection, schedule: Q04DX002 (ip), vehicle: saline).

In the case of `O=c1[nH][nH]c(=O)c2cc3ccccc3cc12`, the T/C is, setting by setting: (dose: 62.5 mg/kg/injection, schedule: Q01DX009 (ip), vehicle: Klucel (hydroxypropylcellulose) (HPC)) 98 % of control; (dose: 125.0 mg/kg/injection, schedule: Q01DX009 (ip), vehicle: Klucel (hydroxypropylcellulose) (HPC)) 105 % of control.

In the case of `O=C(O)C1CC1C(=O)c1ccccc1` (stereo unspecified), the T/C runs as follows: (dose: 25.0 mg/kg/injection, schedule: Q01DX001 (ip), vehicle: Klucel (hydroxypropylcellulose) (HPC)) 98 % of control; (dose: 50.0 mg/kg/injection, schedule: Q01DX001 (ip), vehicle: Klucel (hydroxypropylcellulose) (HPC)) 97 % of control; (dose: 100.0 mg/kg/injection, schedule: Q01DX001 (ip), vehicle: Klucel (hydroxypropylcellulose) (HPC)) 96 % of control and 98 % of control; (dose: 200.0 mg/kg/injection, schedule: Q01DX001 (ip), vehicle: Klucel (hydroxypropylcellulose) (HPC)) 86 % of control; (dose: 400.0 mg/kg/injection, schedule: Q01DX001 (ip), vehicle: Klucel (hydroxypropylcellulose) (HPC)) 103 % of control.

The values are drawn from PubChem BioAssay AID248 (DTP/NCI, 2004).
